{"source": "patent US20040024055A1", "about": "“Pharmaceutical composition containing the exract of saururus chinensis baill useful as an anticancer agent and a process for the preparation thereof” (priority 2000, published 2004)", "key": {"[1]": {"test_system": "SK-Hep-1 liver cancer cell line", "assay": "MTT analysis, anticancer activity", "format": "cell-based, human", "conditions": "48 hr", "procedure": "(§1) To be specific, SK-Hep-1 cell, which is liver cancer cell line, was added to 96-well microplate (Falcon, USA) with the concentration of 3×10^5 cells/ml by 100 μl per well. Each extracted and separated substance dissolved in DMSO was added to the well by 100 μl for the final concentration to be from 50 μg/ml to 0.0244 μg/ml, with 200 μl of final volume. Each cell was cultured for 48 hr in a culture medium of 37° C. and 5% CO2. After cultivation, 20 μl of phosphate buffer solution containing 5 mg/ml of MTT (3-[4,5-dimethylthiazol-2-yl]-2,5-diphenyltetrazoliumbromide, Sigma Co.) reagent was added to each well, and then cultured for 4 hr. After taking 100 μl of supernant from each culture medium, 100 μl of 0.04N hydrochloric acid-isopropanol was added. After letting alone overnight, absorbance was measured at 560 nm using automatic Eliza detector (Molecular Divices Corp., USA). Anticancer activity of each extracted and separated substance was calculated from the absorbance value by Equation 1 and was expressed in terms of cell.\n(§2) Average Existence Rate(%)=(Absorbance of Treated Group)/(Absorbance of Control Group)×100"}, "[2]": {"test_system": "PC-3 prostate cancer cell line", "assay": "MTT analysis, anticancer activity", "format": "cell-based, human", "conditions": "48 hr", "procedure": "as §1, §2"}, "[3]": {"test_system": "DU-145 prostate cancer cell line", "assay": "MTT analysis, anticancer activity", "format": "cell-based, human", "conditions": "48 hr"}, "BT-20": {"test_system": "BT-20", "assay": "MTT analysis, anticancer activity", "format": "cell-based, human", "conditions": "48 hr"}, "BT-549": {"test_system": "BT-549", "assay": "MTT analysis, anticancer activity", "format": "cell-based, human", "conditions": "10 μg/ml sample"}, "HS-578T": {"test_system": "HS-578T", "assay": "MTT analysis, anticancer activity", "format": "cell-based, human", "conditions": "10 μg/ml sample"}, "MCF-7": {"test_system": "MCF-7", "assay": "MTT analysis, anticancer activity", "format": "cell-based, human", "conditions": "MTT, 48 hr"}, "SK-BR-3": {"test_system": "SK-BR-3", "assay": "MTT analysis, anticancer activity", "format": "cell-based, human", "conditions": "48 hr"}, "T-47D": {"test_system": "T-47D", "assay": "MTT analysis, anticancer activity", "format": "cell-based, human", "conditions": "48 hr"}, "HeLa": {"test_system": "HeLa", "assay": "MTT analysis, anticancer activity", "format": "cell-based, human", "conditions": "48 hr"}, "ME-180": {"test_system": "ME-180", "assay": "MTT analysis, anticancer activity", "format": "cell-based, human", "conditions": "10 μg/ml sample"}, "HT-29": {"test_system": "HT-29", "assay": "MTT analysis, anticancer activity", "format": "cell-based, human", "conditions": "10 μg/ml sample"}, "LoVo": {"test_system": "LoVo", "assay": "MTT analysis, anticancer activity", "format": "cell-based, human", "conditions": "10 μg/ml sample"}, "SK-N-SH": {"test_system": "SK-N-SH", "assay": "MTT analysis, anticancer activity", "format": "cell-based, human", "conditions": "48 hr"}, "T98G": {"test_system": "T98G", "assay": "MTT analysis, anticancer activity", "format": "cell-based, human", "conditions": "48 hr"}, "HS-746T": {"test_system": "HS-746T", "assay": "MTT analysis, anticancer activity", "format": "cell-based, human", "conditions": "10 μg/ml sample"}, "KATO-III": {"test_system": "KATO-III", "assay": "MTT analysis, anticancer activity", "format": "cell-based, human", "conditions": "MTT, 48 hr"}, "A431": {"test_system": "A431", "assay": "MTT analysis, anticancer activity", "format": "cell-based, human", "conditions": "48 hr"}, "Hep-2": {"test_system": "Hep-2", "assay": "MTT analysis, anticancer activity", "format": "cell-based, human", "conditions": "MTT, 48 hr"}, "HT1080": {"test_system": "HT1080", "assay": "MTT analysis, anticancer activity", "format": "cell-based, human", "conditions": "48 hr"}, "NCI-H69": {"test_system": "NCI-H69", "assay": "MTT analysis, anticancer activity", "format": "cell-based, human", "conditions": "10 μg/ml sample"}, "SK-MEL-28": {"test_system": "SK-MEL-28", "assay": "MTT analysis, anticancer activity", "format": "cell-based, human", "conditions": "48 hr"}, "SK-OV-3": {"test_system": "SK-OV-3", "assay": "MTT analysis, anticancer activity", "format": "cell-based, human", "conditions": "10 μg/ml sample"}, "HS683": {"test_system": "HS683", "assay": "MTT analysis, anticancer activity", "format": "cell-based, human", "conditions": "48 hr"}, "293": {"test_system": "293", "assay": "MTT analysis, cytotoxicity against normal cell line", "format": "cell-based, human", "conditions": "10 μg/ml sample"}, "3T3-L1": {"test_system": "3T3-L1", "assay": "MTT analysis, cytotoxicity against normal cell line", "format": "cell-based, mouse", "conditions": "10 μg/ml sample"}, "CHO": {"test_system": "CHO", "assay": "MTT analysis, cytotoxicity against normal cell line", "format": "cell-based, Chinese hamster", "conditions": "10 μg/ml sample"}, "CPAE": {"test_system": "CPAE", "assay": "MTT analysis, cytotoxicity against normal cell line", "format": "cell-based, bovine", "conditions": "10 μg/ml sample"}, "HS27": {"test_system": "HS27", "assay": "MTT analysis, cytotoxicity against normal cell line", "format": "cell-based, human", "conditions": "10 μg/ml sample"}, "NIH-3T3": {"test_system": "NIH-3T3", "assay": "MTT analysis, cytotoxicity against normal cell line", "format": "cell-based, mouse", "conditions": "10 μg/ml sample"}, "Solubility": {"assay": "Solubility", "format": "physicochemical"}, "mouse [4]": {"test_system": "mouse", "conditions": "intraperitoneal, Rao et al.; cited from earlier work"}, "mouse [5]": {"test_system": "mouse", "conditions": "reported by Rao et al.; cited from earlier work"}}}
{"smiles": "COc1ccc(C(O)C(C)Oc2ccc(C3OC(c4ccc(OC(C)[C@@H](O)c5ccc(OC)c(OC)c5)c(OC)c4)C(C)C3C)cc2OC)cc1OC", "note": "(single isomer, unassigned) [HNP-98701C, manassantin A]", "values": [{"measurement": "IC50 SK-Hep-1", "setting": "[1]", "result": 0.0560, "unit": "µg/mL"}, {"measurement": "IC50 PC-3", "setting": "[2]", "result": 0.0446, "unit": "µg/mL"}, {"measurement": "IC50 DU-145", "setting": "[3]", "result": 0.0263, "unit": "µg/mL"}, {"measurement": "IC50 BT-20", "setting": "BT-20", "result": 0.0629, "unit": "µg/mL"}, {"measurement": "Existence rate class, BT-549 (in IC50 table)", "setting": "BT-549", "result": "* (Existence rate larger than 60% for 10 μg/ml sample)"}, {"measurement": "Existence rate class, HS-578T (in IC50 table)", "setting": "HS-578T", "result": "N.E. (Not effective; existence rate larger than 90% for 10 μg/ml sample)"}, {"measurement": "IC50 MCF-7", "setting": "MCF-7", "result": ">10", "unit": "µg/mL"}, {"measurement": "IC50 SK-BR-3", "setting": "SK-BR-3", "result": 0.0632, "unit": "µg/mL"}, {"measurement": "IC50 T-47D", "setting": "T-47D", "result": 0.1249, "unit": "µg/mL"}, {"measurement": "IC50 HeLa", "setting": "HeLa", "result": 0.1838, "unit": "µg/mL"}, {"measurement": "Existence rate class, ME-180 (in IC50 table)", "setting": "ME-180", "result": "* (Existence rate larger than 60% for 10 μg/ml sample)"}, {"measurement": "Existence rate class, HT-29 (in IC50 table)", "setting": "HT-29", "result": "* (Existence rate larger than 60% for 10 μg/ml sample)"}, {"measurement": "Existence rate class, LoVo (in IC50 table)", "setting": "LoVo", "result": "* (Existence rate larger than 60% for 10 μg/ml sample)"}, {"measurement": "IC50 SK-N-SH", "setting": "SK-N-SH", "result": 0.5392, "unit": "µg/mL"}, {"measurement": "IC50 T98G", "setting": "T98G", "result": 0.1014, "unit": "µg/mL"}, {"measurement": "Existence rate class, HS-746T (in IC50 table)", "setting": "HS-746T", "result": "* (Existence rate larger than 60% for 10 μg/ml sample)"}, {"measurement": "IC50 KATO-III", "setting": "KATO-III", "result": 0.7005, "unit": "µg/mL"}, {"measurement": "IC50 A431", "setting": "A431", "result": 0.3860, "unit": "µg/mL"}, {"measurement": "IC50 Hep-2", "setting": "Hep-2", "result": 0.0367, "unit": "µg/mL"}, {"measurement": "IC50 HT1080", "setting": "HT1080", "result": 0.1753, "unit": "µg/mL"}, {"measurement": "Existence rate class, NCI-H69 (in IC50 table)", "setting": "NCI-H69", "result": "* (Existence rate larger than 60% for 10 μg/ml sample)"}, {"measurement": "IC50 SK-MEL-28", "setting": "SK-MEL-28", "result": 0.0725, "unit": "µg/mL"}, {"measurement": "Existence rate class, SK-OV-3 (in IC50 table)", "setting": "SK-OV-3", "result": "N.E. (Not effective; existence rate larger than 90% for 10 μg/ml sample)"}, {"measurement": "IC50 HS683", "setting": "HS683", "result": 0.2170, "unit": "µg/mL"}, {"measurement": "Existence rate class, 293 (in IC50 table)", "setting": "293", "result": "* (Existence rate larger than 60% for 10 μg/ml sample)"}, {"measurement": "Existence rate class, 3T3-L1 (in IC50 table)", "setting": "3T3-L1", "result": "N.E. (Not effective; existence rate larger than 90% for 10 μg/ml sample)"}, {"measurement": "Existence rate class, CHO (in IC50 table)", "setting": "CHO", "result": "* (Existence rate larger than 60% for 10 μg/ml sample)"}, {"measurement": "Existence rate class, CPAE (in IC50 table)", "setting": "CPAE", "result": "* (Existence rate larger than 60% for 10 μg/ml sample)"}, {"measurement": "Existence rate class, HS27 (in IC50 table)", "setting": "HS27", "result": "N.E. (Not effective; existence rate larger than 90% for 10 μg/ml sample)"}, {"measurement": "Existence rate class, NIH-3T3 (in IC50 table)", "setting": "NIH-3T3", "result": "N.E. (Not effective; existence rate larger than 90% for 10 μg/ml sample)"}, {"measurement": "Solubility in methanol, ethanol, ethyl acetate, chloroform and dimethylsulfoxide (DMSO)", "setting": "Solubility", "result": "highly soluble"}, {"measurement": "Solubility in water, acetone, ether and hexane", "setting": "Solubility", "result": "insoluble"}, {"measurement": "spontaneous movement 50% reduction concentration (IC50)", "setting": "mouse [4]", "result": "0.21 ± 0.02", "unit": "mg/kg"}, {"measurement": "50% lethal dose (LD50)", "setting": "mouse [5]", "result": 5.2, "unit": "mg/kg"}]}
